Biological target: human ACC2 (Homo sapiens (Human), UniProt O00763)
Test: ACC2 assay (spectrophotometric 384 well assay, NADH-linked kinetic method)
Format: biochemical
Details: hACC2 construct lacking 128 N-terminal amino acids, 25° C., 340 nm
Method in brief: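 Baculovirus/insect-cell human ACC2, anion-exchange purified; ADP formation coupled to pyruvate kinase/lactate dehydrogenase, NADH loss followed at 340 nm, 25° C, 15 min. Final 200 μM NADH and acetyl-CoA, 500 uM ATP; vehicle and no-acetyl-CoA wells set 100% and 0%.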

Sequence of human ACC2 (O00763 129-2458): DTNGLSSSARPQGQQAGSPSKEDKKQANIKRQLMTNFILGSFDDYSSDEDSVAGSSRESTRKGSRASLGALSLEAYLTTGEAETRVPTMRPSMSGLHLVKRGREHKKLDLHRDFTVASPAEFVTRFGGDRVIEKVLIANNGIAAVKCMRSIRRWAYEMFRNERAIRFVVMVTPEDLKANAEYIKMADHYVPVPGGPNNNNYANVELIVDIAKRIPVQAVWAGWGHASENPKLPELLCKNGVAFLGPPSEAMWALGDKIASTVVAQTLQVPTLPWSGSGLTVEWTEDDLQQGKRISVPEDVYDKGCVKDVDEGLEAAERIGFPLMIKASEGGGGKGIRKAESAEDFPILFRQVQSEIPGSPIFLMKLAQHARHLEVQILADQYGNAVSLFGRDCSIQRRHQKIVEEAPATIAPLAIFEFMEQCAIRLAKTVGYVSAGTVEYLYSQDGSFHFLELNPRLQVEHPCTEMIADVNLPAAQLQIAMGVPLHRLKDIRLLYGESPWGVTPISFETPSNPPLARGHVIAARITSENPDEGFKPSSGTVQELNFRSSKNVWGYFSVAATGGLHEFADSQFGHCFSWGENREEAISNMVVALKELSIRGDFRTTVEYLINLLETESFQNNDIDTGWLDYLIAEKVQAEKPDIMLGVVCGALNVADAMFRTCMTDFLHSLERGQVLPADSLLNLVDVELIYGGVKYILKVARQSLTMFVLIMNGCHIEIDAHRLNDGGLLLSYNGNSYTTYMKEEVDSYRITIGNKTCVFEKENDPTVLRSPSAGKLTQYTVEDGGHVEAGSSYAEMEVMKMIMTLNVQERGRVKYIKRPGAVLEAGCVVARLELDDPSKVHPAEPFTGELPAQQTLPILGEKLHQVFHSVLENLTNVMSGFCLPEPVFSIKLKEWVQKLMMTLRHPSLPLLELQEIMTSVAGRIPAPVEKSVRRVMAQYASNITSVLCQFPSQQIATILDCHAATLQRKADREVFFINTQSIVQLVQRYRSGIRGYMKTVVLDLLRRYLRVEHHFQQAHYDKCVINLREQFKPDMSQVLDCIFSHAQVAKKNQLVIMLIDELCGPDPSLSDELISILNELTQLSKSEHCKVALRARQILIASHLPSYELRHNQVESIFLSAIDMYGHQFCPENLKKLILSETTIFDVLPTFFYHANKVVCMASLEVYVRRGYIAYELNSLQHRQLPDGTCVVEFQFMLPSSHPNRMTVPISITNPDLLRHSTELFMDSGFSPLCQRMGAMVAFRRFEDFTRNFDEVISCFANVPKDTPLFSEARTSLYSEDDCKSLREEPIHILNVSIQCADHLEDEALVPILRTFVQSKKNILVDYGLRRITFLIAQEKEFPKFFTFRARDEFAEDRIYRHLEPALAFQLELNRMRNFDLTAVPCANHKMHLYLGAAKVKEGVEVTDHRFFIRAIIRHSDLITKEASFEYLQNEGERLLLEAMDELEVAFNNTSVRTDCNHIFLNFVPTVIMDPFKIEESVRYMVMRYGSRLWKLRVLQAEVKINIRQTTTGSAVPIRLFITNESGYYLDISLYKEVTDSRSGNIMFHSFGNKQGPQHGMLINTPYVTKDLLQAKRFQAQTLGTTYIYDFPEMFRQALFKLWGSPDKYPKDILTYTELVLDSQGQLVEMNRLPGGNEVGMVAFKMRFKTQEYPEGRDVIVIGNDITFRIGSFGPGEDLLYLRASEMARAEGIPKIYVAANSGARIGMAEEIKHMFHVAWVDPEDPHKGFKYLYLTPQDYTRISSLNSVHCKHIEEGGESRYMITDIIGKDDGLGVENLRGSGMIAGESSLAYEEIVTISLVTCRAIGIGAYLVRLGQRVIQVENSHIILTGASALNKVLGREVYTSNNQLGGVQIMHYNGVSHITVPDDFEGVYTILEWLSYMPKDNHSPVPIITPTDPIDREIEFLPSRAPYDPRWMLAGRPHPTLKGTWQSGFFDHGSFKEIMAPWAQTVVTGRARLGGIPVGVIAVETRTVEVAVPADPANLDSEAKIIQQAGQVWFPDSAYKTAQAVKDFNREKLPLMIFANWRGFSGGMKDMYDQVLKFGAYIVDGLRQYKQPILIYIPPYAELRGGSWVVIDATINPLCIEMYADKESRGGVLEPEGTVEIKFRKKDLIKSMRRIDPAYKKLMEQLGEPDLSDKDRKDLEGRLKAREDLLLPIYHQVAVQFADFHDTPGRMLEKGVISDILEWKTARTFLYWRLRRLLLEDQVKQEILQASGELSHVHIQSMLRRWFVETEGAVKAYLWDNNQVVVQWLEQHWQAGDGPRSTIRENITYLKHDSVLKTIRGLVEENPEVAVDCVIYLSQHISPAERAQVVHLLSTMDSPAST

Compound | IC50 [nM]
C[C@H](NC(=O)C1CC[C@@H](N)C1)c1ccc(O[C@@H]2CCN(c3ccc(OCC4CC4)cc3)C2)cc1 (some centres unmarked) [Example 9] | 1750
CCOc1ccc(N2CC[C@@H](Oc3ccc([C@H](C)NC(=O)c4sc(NC(=O)CO)nc4C)cc3)C2)cc1 [Example 10, N—((S)-1-(4-((R)-1-(4-Ethoxyphenyl)pyrrolidin-3-yloxy)phenyl)-ethyl)-2-(2-hydroxyacetamido)-4-methylthiazole-5-carboxamide] | 163
